Results published in patent US8580794B2 (AbbVie Inc., priority 2009, dated 2013).

These compounds were tested against GST-Bc1-2 (Homo sapiens, UniProt P10415) (assay: Time Resolved-Fluorescence Resonance Energy Transfer (TR-FRET) Bcl-2 binding assay with F-Bak peptide probe). Conditions: GST-Bcl-2 1 nM, F-Bak probe 100 nM, Tb-anti-GST 1 nM; '<' = below limit of detection; read-out: TR-FRET Bcl-2 Binding Ki.
Sequence of GST-Bc1-2 (P10415 whole entry): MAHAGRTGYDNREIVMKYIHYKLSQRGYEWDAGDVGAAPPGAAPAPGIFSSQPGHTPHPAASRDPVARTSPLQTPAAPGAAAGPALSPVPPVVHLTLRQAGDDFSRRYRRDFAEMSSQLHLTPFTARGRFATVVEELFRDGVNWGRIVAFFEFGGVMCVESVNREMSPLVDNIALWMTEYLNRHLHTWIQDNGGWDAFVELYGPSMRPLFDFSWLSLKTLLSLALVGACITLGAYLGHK
CC1(C)CCC(CN2CCN(c3ccc(C(=O)NS(=O)(=O)c4ccc(NCC5CN(CC#N)CCO5)c([N+](=O)[O-])c4)c(Oc4cnc5[nH]ccc5c4)c3)CC2)=C(c2ccc(Cl)cc2)C1 (stereo not drawn) [Example 214, 4-(4-{[2-(4-chlorophenyl)-4,4-dimethylcyclohex-1-en-1-yl]methyl}piperazin-1-yl)-N-{[4-({[4-(cyanomethyl)morpholin-2-yl]methyl}amino)-3-nitrophenyl]sulfonyl}-2-(1H-pyrrolo[2,3-b]pyridin-5-yloxy)benzamide] was tested, and the Ki was less than 0.01 nM. CN(C)CC(=O)N1CCOC(CNc2ccc(S(=O)(=O)NC(=O)c3ccc(N4CCN(CC5=C(c6ccc(Cl)cc6)CC(C)(C)CC5)CC4)cc3Oc3cnc4[nH]ccc4c3)cc2[N+](=O)[O-])C1 (stereo not drawn) [Example 215, 4-(4-{[2-(4-chlorophenyl)-4,4-dimethylcyclohex-1-en-1-yl]methyl}piperazin-1-yl)-N-{[4-({[4-(N,N-dimethylglycyl)morpholin-2-yl]methyl}amino)-3-nitrophenyl]sulfonyl}-2-(1H-pyrrolo[2,3-b]pyridin-5-yloxy)benzamide] showed a Ki of less than 0.01 nM. Work on CC1(C)CCC(CN2CCN(c3ccc(C(=O)NS(=O)(=O)c4ccc(NCC5CN(CC(=O)O)CCO5)c([N+](=O)[O-])c4)c(Oc4cnc5[nH]ccc5c4)c3)CC2)=C(c2ccc(Cl)cc2)C1 (stereo not drawn) [Example 216, (2-{[(4-{[4-(4-{[2-(4-chlorophenyl)-4,4-dimethylcyclohex-1-en-1-yl]methyl}piperazin-1-yl)-2-(1H-pyrrolo[2,3-b]pyridin-5-yloxy)benzoyl]sulfamoyl}-2-nitrophenyl)amino]methyl}morpholin-4-yl)acetic acid] yielded a Ki of less than 0.01 nM. Work on CC1(C)CCC(CN2CCN(c3ccc(C(=O)NS(=O)(=O)c4ccc(NCC5CN(C6COC6)CCO5)c([N+](=O)[O-])c4)c(Oc4cnc5[nH]ccc5c4)c3)CC2)=C(c2ccc(Cl)cc2)C1 (stereo not drawn) [Example 217, 4-(4-{[2-(4-chlorophenyl)-4,4-dimethylcyclohex-1-en-1-yl]methyl}piperazin-1-yl)-N-{[3-nitro-4-({[4-(oxetan-3-yl)morpholin-2-yl]methyl}amino)phenyl]sulfonyl}-2-(1H-pyrrolo[2,3-b]pyridin-5-yloxy)benzamide] yielded a Ki of less than 0.01 nM. For CC1(C)CCC(CN2CCN(c3ccc(C(=O)NS(=O)(=O)c4ccc(NCC5CN(C6CC6)CCO5)c([N+](=O)[O-])c4)c(Oc4cnc5[nH]ccc5c4)c3)CC2)=C(c2ccc(Cl)cc2)C1 (stereo not drawn) [Example 218, 4-(4-{[2-(4-chlorophenyl)-4,4-dimethylcyclohex-1-en-1-yl]methyl}piperazin-1-yl)-N-[(4-{[(4-cyclopropylmorpholin-2-yl)methyl]amino}-3-nitrophenyl)sulfonyl]-2-(1H-pyrrolo[2,3-b]pyridin-5-yloxy)benzamide], the Ki was 0.013 nM. Work on CC1(C)CCC(CN2CCN(c3ccc(C(=O)NS(=O)(=O)c4cnc(OCC5CCOCC5)c(S(C)(=O)=O)c4)c(Oc4cnc5[nH]ccc5c4)c3)CC2)=C(c2ccc(Cl)cc2)C1 [Example 219, 4-(4-{[2-(4-chlorophenyl)-4,4-dimethylcyclohex-1-en-1-yl]methyl}piperazin-1-yl)-N-{[5-(methylsulfonyl)-6-(tetrahydro-2H-pyran-4-ylmethoxy)pyridin-3-yl]sulfonyl}-2-(1H-pyrrolo[2,3-b]pyridin-5-yloxy)benzamide] yielded a Ki of 1.19 nM. For CC1(C)CCC(CN2CCN(c3ccc(C(=O)NS(=O)(=O)c4ccc(OCC5(F)CCOCC5)c(S(=O)(=O)C(F)(F)F)c4)c(Oc4cnc5[nH]ccc5c4)c3)CC2)=C(c2ccc(Cl)cc2)C1 [Example 220, 4-(4-{[2-(4-chlorophenyl)-4,4-dimethylcyclohex-1-en-1-yl]methyl}piperazin-1-yl)-N-({4-[(4-fluorotetrahydro-2H-pyran-4-yl)methoxy]-3-[(trifluoromethyl)sulfonyl]phenyl}sulfonyl)-2-(1H-pyrrolo[2,3-b]pyridin-5-yloxy)benzamide], the Ki was 0.988 nM. With CC1(C)CCC(CN2CCN(c3ccc(C(=O)NS(=O)(=O)c4ccc(OCC5(C)CCOCC5)c([N+](=O)[O-])c4)c(Oc4cnc5[nH]ccc5c4)c3)CC2)=C(c2ccc(Cl)cc2)C1 [Example 221, 4-(4-{[2-(4-chlorophenyl)-4,4-dimethylcyclohex-1-en-1-yl]methyl}piperazin-1-yl)-N-({4-[(4-methyltetrahydro-2H-pyran-4-yl)methoxy]-3-nitrophenyl}sulfonyl)-2-(1H-pyrrolo[2,3-b]pyridin-5-yloxy)benzamide] the Ki was 0.049 nM. Work on CCOC(=O)N1CCN(c2ccc(S(=O)(=O)NC(=O)c3ccc(N4CCN(CC5=C(c6ccc(Cl)cc6)CC(C)(C)CC5)CC4)cc3Oc3cnc4[nH]ccc4c3)cc2[N+](=O)[O-])CC1 [Example 222, ethyl 4-(4-{[4-(4-{[2-(4-chlorophenyl)-4,4-dimethylcyclohex-1-en-1-yl]methyl}piperazin-1-yl)-2-(1H-pyrrolo[2,3-b]pyridin-5-yloxy)benzoyl]sulfamoyl}-2-nitrophenyl)piperazine-1-carboxylate] yielded a Ki of 0.938 nM. CC1(C)CCC(CN2CCN(c3ccc(C(=O)NS(=O)(=O)c4ccc(N5CCC(N6CCOCC6)CC5)c([N+](=O)[O-])c4)c(Oc4cnc5[nH]ccc5c4)c3)CC2)=C(c2ccc(Cl)cc2)C1 [Example 223, 4-(4-{[2-(4-chlorophenyl)-4,4-dimethylcyclohex-1-en-1-yl]methyl}piperazin-1-yl)-N-({4-[4-(morpholin-4-yl)piperidin-1-yl]-3-nitrophenyl}sulfonyl)-2-(1H-pyrrolo[2,3-b]pyridin-5-yloxy)benzamide] showed a Ki of 0.053 nM. In the case of CC1(C)CCC(CN2CCN(c3ccc(C(=O)NS(=O)(=O)c4ccc(N[C@@H]5CCN(C(CF)CF)C5)c(S(=O)(=O)C(F)(F)F)c4)c(Oc4cnc5[nH]ccc5c4)c3)CC2)=C(c2ccc(Cl)cc2)C1 [Example 225, 4-(4-{[2-(4-chlorophenyl)-4,4-dimethylcyclohex-1-en-1-yl]methyl}piperazin-1-yl)-N-[(4-{[(3R)-1-(1,3-difluoropropan-2-yl)pyrrolidin-3-yl]amino}-3-[(trifluoromethyl)sulfonyl]phenyl)sulfonyl]-2-(1H-pyrrolo[2,3-b]pyridin-5-yloxy)benzamide], the Ki is reported as 0.196 nM. CC(C)N1CCC(Nc2ccc(S(=O)(=O)NC(=O)c3ccc(N4CCN(CC5=C(c6ccc(Cl)cc6)CC(C)(C)CC5)CC4)cc3Oc3cnc4[nH]ccc4c3)cc2[N+](=O)[O-])CC1 [Example 226, 4-(4-{[2-(4-chlorophenyl)-4,4-dimethylcyclohex-1-en-1-yl]methyl}piperazin-1-yl)-N-({4-[(1-isopropylpiperidin-4-yl)amino]-3-nitrophenyl}sulfonyl)-2-(1H-pyrrolo[2,3-b]pyridin-5-yloxy)benzamide] was tested, and the Ki was 0.139 nM. CC1(C)CCC(CN2CCN(c3ccc(C(=O)NS(=O)(=O)c4ccc(NC5CCN(C(C)(C)C)CC5)c([N+](=O)[O-])c4)c(Oc4cnc5[nH]ccc5c4)c3)CC2)=C(c2ccc(Cl)cc2)C1 [Example 227, N-({4-[(1-tert-butylpiperidin-4-yl)amino]-3-nitrophenyl}sulfonyl)-4-(4-{[2-(4-chlorophenyl)-4,4-dimethylcyclohex-1-en-1-yl]methyl}piperazin-1-yl)-2-(1H-pyrrolo[2,3-b]pyridin-5-yloxy)benzamide] gave a Ki of less than 0.01 nM. COCCN1CCCC(CNc2ccc(S(=O)(=O)NC(=O)c3ccc(N4CCN(CC5=C(c6ccc(Cl)cc6)CC(C)(C)CC5)CC4)cc3Oc3cnc4[nH]ccc4c3)cc2[N+](=O)[O-])C1 (stereo not drawn) [Example 228, 4-(4-{[2-(4-chlorophenyl)-4,4-dimethylcyclohex-1-en-1-yl]methyl}piperazin-1-yl)-N-{[4-({[1-(2-methoxyethyl)piperidin-3-yl]methyl}amino)-3-nitrophenyl]sulfonyl}-2-(1H-pyrrolo[2,3-b]pyridin-5-yloxy)benzamide] was tested, and the Ki was 26.8 nM. With CC1(C)CCC(CN2CCN(c3ccc(C(=O)NS(=O)(=O)c4ccc(NCC5CCCN(CC#N)C5)c([N+](=O)[O-])c4)c(Oc4cnc5[nH]ccc5c4)c3)CC2)=C(c2ccc(Cl)cc2)C1 (stereo not drawn) [Example 229, 4-(4-{[2-(4-chlorophenyl)-4,4-dimethylcyclohex-1-en-1-yl]methyl}piperazin-1-yl)-N-{[4-({[1-(cyanomethyl)piperidin-3-yl]methyl}amino)-3-nitrophenyl]sulfonyl}-2-(1H-pyrrolo[2,3-b]pyridin-5-yloxy)benzamide] the Ki was 2.11 nM. Work on CN1CCC(F)(COc2ccc(S(=O)(=O)NC(=O)c3ccc(N4CCN(CC5=C(c6ccc(Cl)cc6)CC(C)(C)CC5)CC4)cc3Oc3cnc4[nH]ccc4c3)cc2S(=O)(=O)C(F)(F)F)CC1 [Example 230, 4-(4-{[2-(4-chlorophenyl)-4,4-dimethylcyclohex-1-en-1-yl]methyl}piperazin-1-yl)-N-({4-[(4-fluoro-1-methylpiperidin-4-yl)methoxy]-3-[(trifluoromethyl)sulfonyl]phenyl}sulfonyl)-2-(1H-pyrrolo[2,3-b]pyridin-5-yloxy)benzamide] yielded a Ki of 0.031 nM. In the case of CC1(C)CCC(CN2CCN(c3ccc(C(=O)NS(=O)(=O)c4ccc(NN5CCN(C(=O)OC(C)(C)C)CC5)c([N+](=O)[O-])c4)c(Oc4cnc5[nH]ccc5c4)c3)CC2)=C(c2ccc(Cl)cc2)C1 [Example 232, tert-butyl 4-[(4-{[4-(4-{[2-(4-chlorophenyl)-4,4-dimethylcyclohex-1-en-1-yl]methyl}piperazin-1-yl)-2-(1H-pyrrolo[2,3-b]pyridin-5-yloxy)benzoyl]sulfamoyl}-2-nitrophenyl)amino]piperazine-1-carboxylate], the Ki is reported as 1.63 nM. With CC1(C)CCC(CN2CCN(c3ccc(C(=O)NS(=O)(=O)c4ccc(NCC5CCOCC5)c(S(F)(F)(F)(F)F)c4)c(Oc4cnc5[nH]ccc5c4)c3)CC2)=C(c2ccc(Cl)cc2)C1 [Example 233, 4-(4-{[2-(4-chlorophenyl)-4,4-dimethylcyclohex-1-en-1-yl]methyl}piperazin-1-yl)-N-({3-(pentafluoro-lambda˜6˜-sulfanyl)-4-[(tetrahydro-2H-pyran-4-ylmethyl)amino]phenyl}sulfonyl)-2-(1H-pyrrolo[2,3-b]pyridin-5-yloxy)benzamide] the Ki was 1.65 nM.
